Measurements reported in US20250064886A1, “CARDIOVASCULAR AND CEREBROVASCULAR DRUG AND USE THEREOF” (HANGZHOU ADAMERCK PHARMLABS INC., priority 2021, published 2025).

Assays:
[1] = test system: rats with focal cerebral ischemia (MCAO)/reperfusion; assay: Therapeutic administration, cerebral ischemia-reperfusion injury MCAO/R in rats (Example 7); format: in vivo, rat; settings: 6 mg/kg i.v. once 1 h after reperfusion
Procedure: Experimental method: SD rats were randomly divided into 11 groups, including pseudosurgery group, a model control group, positive control drug edaravone via intravenous injection (6 mg/kg, i.v.) group, positive control drug butylphthalide injection via intravenous injection (5 mg/kg, i.v.) group, compound (1) high-dose (24 mg/kg, i.v.), medium-dose (12 mg/kg, i.v.), low-dose (6 mg/kg, i.v.) via intravenous injection group, positive drug butylphthalide soft capsule via intragastric administration (60 mg/kg, i.g.) group, and compound via intragastric administration at (1) high-dose (60 mg/kg, i.g.), medium-dose (30 mg/kg, i.g.), low-dose (15 mg/kg, i.g.) group. A middle cerebral artery occlusion (MCAO) model for cerebral ischemia-reperfusion of male rats was prepared using the internal carotid suture-occluded method with an ischemic time of 90 min followed by reperfusion. Injection and oral administration for once were performed 1 h after reperfusion, and neurobehavioral scoring was performed on rats after 24 h to determine neurological function in rats; the cerebral infarction rate and cerebral water content of rats were determined by 2,3,5-triphenyltetrazolium chloride (TTC) staining.

[2] = test system: vascular endothelial injury induced thrombosis model in zebrafish; assay: Preventative effect on vascular endothelial injury induced thrombosis, ponatinib zebrafish model (Example 1); format: in vivo; settings: 4.00 ng/tail injected
Procedure: Experimental method: 420 tails of 5 dpf wild type AB strain zebrafish were randomly selected and placed in a six-well plate, with 30 fish per well (experimental group). The fish were injected with compound (1), compound (2), compound (3), compound (4), compound (5), compound (6), compound (7), compound (8), compound (9), compound (10), and compound (11) (structural formula shown in Table 1) at a dose of 4.00 ng/tail, with positive control drug acetylsalicylic acid being administered by dissolving it in water at a concentration of 30.0 µg/mL. Normal control group (i.e. zebrafish treated with standard diluted water) and model control group were set up, with a capacity of 3 mL per well (experimental group). Except for normal control group, the remaining experimental groups were all given Punatinib by dissolving it in water to induce vascular endothelial injury induced thrombosis model in zebrafish. The zebrafish were stained with o-dianisidine after co-treatment with ponatinib and samples for a period of time under incubation conditions at 28° C.
After staining, 10 zebrafish in each group were randomly selected and photographed under the microscope, and the intensity of cardiac erythrocyte staining in zebrafish was analyzed using NIS-Elements D 3.20 advanced image-processing software, and the samples were evaluated for the preventative effect on vascular endothelial injury induced thrombosis by the statistical results of cardiac erythrocyte staining intensity.
The preventative effect on thrombosis is calculated as follows: […]
Statistical analysis was performed using SPSS software, and p<0.05 indicates significant differences

| SMILES | Behavioral score [1] | Cerebral water content (%) [1] [%] | Cerebral infarction rate (%) ([1]; after 24 h, mean ± SD, n = 8) | Preventative effect on thrombosis (%) [2] [%] | Cardiac erythrocyte staining intensity (pixels, mean ± SE) ([2]; n = 10) [pixels] | Cardiac erythrocyte staining intensity (pixels, mean ± SE) ([2]; n = 10, listed as compound (11)) [pixels] |
| --- | --- | --- | --- | --- | --- | --- |
| CC1=NN(c2ccccc2)C(=O)C1 [Edaravone, edaravone, reference compound] | 1.62 ± 0.51 | 79.81 ± 1.03 | 10.23 ± 7.87 |  |  |  |
| O=S(=O)(O)CCCCOCC1OC2OC3C(COCCCCS(=O)(=O)O)OC(OC4C(COCCCCS(=O)(=O)O)OC(OC5C(COCCCCS(=O)(=O)O)OC(OC6C(COCCCCS(=O)(=O)O)OC(OC7C(COCCCCS(=O)(=O)O)OC(OC8C(COCCCCS(=O)(=O)O)OC(OC1C(O)C2O)C(O)C8O)C(O)C7O)C(O)C6O)C(O)C5O)C(O)C4O)C(O)C3O (stereo not drawn) [Compound (11)] |  |  |  | 79 | 4749 ± 12 | 4749 |
